Series [1] has as its target T1, Nonstructural protein 5 (Dengue virus, UniProt V5TFZ2). The series is described as follows: Inhibition of DENV3 NS5 RdRp using ss-RNA PolyC as template and GTP as substrate assessed as decrease in dsRNA levels after 1 hr by PicoGreen-based fluorescence assay. Details: species or system dengue virus type 3; call rule not given here.
For series [2], the target named is T1, Nonstructural protein 5. As to the kind of experiment: Mixed type inhibition of DENV3 NS5 RdRp using increasing concentration of ss-RNA PolyC as template assessed as enzyme-substrate complex after 1 hr in presence of GTP substrate by Lineweaver-Burk double reciprocal plot analysis. Details: species or system dengue virus type 3.
Series [3] concerns the target T1, Nonstructural protein 5. The series is described as follows: Mixed type inhibition of DENV3 NS5 RdRp using increasing concentration of GTP as substrate assessed as enzyme-substrate complex after 1 hr in presence of ss-RNA PolyC template by Lineweaver-Burk double reciprocal plot analysis. Set-up: species or system dengue virus type 3.
Series [4] is described as follows: Cytotoxicity against African green monkey Vero E6 cells by Cell Titer-blue method. Type of series: cell-based, Vero C1008. Conditions: chlorocebus sabaeus. A general note: Alamar Blue is a resazurin reagent that responds to reducing activity.
Series [5] concerns the target T1, Nonstructural protein 5. As to the kind of experiment: Mixed type inhibition of DENV3 NS5 RdRp using increasing concentration of ss-RNA PolyC as template assessed as free enzyme after 1 hr in presence of GTP substrate by Lineweaver-Burk double reciprocal plot analysis. Set-up: species or system dengue virus type 3.
The target in series [6] is T1, Nonstructural protein 5. As to the kind of experiment: Binding affinity to DENV3 NT-647-NHS labeled NS5 RdRp after 1 hr by microscale thermophoresis method. Set-up: species or system dengue virus type 3. A general note: In MST a laser heats a spot of the sample, and binding alters the fluorescence response.
Series [7] is described as follows: Induction of colloidal aggregate formation in aqueous medium at 50 uM measured for 5 mins by light scattering-based photon correlation spectroscopy. Type of series: physicochemical. Particulars: buffer.
The target in series [8] is T1, Nonstructural protein 5. As to the kind of experiment: Mixed type inhibition of DENV3 NS5 RdRp using increasing concentration of GTP as substrate assessed as free enzyme after 1 hr in presence of ss-RNA PolyC template by Lineweaver-Burk double reciprocal plot analysis. Details: species or system dengue virus type 3.
Series [9] addresses T1, Nonstructural protein 5. The series is described as follows: Inhibition of DENV3 full length NS5 RdRp assessed as decrease in dsRNA levels preincubated for 20 mins followed by ss-RNA and ATTO-CTP, ATP, GTP and UTP addition measured after 120 mins by FAPA assay. Set-up: species or system dengue virus type 3.

SMILES strings stand for the structures. Where only a bound is given, the exact number is not on record here.

T1 sequence (V5TFZ2 whole entry): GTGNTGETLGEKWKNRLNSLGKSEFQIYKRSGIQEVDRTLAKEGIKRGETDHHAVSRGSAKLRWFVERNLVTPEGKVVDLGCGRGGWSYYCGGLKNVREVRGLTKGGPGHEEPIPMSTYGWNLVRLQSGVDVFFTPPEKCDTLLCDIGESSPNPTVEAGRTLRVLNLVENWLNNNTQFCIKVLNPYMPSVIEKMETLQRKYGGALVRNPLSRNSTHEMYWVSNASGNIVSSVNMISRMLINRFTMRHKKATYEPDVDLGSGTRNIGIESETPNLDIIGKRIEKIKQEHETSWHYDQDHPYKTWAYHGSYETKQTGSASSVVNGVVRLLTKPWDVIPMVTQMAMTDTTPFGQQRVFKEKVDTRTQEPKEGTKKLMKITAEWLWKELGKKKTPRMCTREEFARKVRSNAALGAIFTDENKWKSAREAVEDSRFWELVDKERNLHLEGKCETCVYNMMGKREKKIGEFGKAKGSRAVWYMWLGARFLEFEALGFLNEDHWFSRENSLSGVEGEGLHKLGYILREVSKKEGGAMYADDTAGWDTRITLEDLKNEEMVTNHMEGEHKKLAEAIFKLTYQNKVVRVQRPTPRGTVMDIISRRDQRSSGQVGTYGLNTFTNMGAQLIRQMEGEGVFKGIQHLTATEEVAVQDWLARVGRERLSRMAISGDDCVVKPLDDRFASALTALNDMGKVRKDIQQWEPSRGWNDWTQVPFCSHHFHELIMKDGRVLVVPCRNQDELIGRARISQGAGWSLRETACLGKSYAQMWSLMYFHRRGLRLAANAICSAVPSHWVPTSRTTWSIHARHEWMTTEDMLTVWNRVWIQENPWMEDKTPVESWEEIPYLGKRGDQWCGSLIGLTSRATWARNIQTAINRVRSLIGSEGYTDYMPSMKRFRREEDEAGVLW

In the case of `COC1=CS(=O)(=O)N(C(=O)c2ccccc2)c2ccc(Oc3ccccc3Br)cc21`, at Nonstructural protein 5 [1], the half-inhibitory concentration (IC50) (as a rule, the concentration that inhibits the measured activity by half) is 46.2 µM.

`O=C(O)c1cc(Oc2cccc(Br)c2)ccc1NS(=O)(=O)c1ccc([N+](=O)[O-])cc1`: on Nonstructural protein 5 [1], the IC50 was 1.7 µM. Still for that read-out and setting: the value for `O=C(OC1=CS(=O)(=O)Nc2ccc(Oc3cccc(Br)c3)cc21)c1ccc(F)c(F)c1` was 0.9 µM.

In the case of `O=C(O)c1cc(Oc2cccc(Br)c2)ccc1NS(=O)(=O)c1ccccc1`, the IC50 at Nonstructural protein 5 [1] amounted to 4.5 µM.

`COc1ccc(C(=O)OC2=CS(=O)(=O)Nc3ccc(Oc4ccccc4Br)cc32)cc1[N+](=O)[O-]`: the IC50 at Nonstructural protein 5 [1] worked out at 6.3 µM. Turning to `O=C1CS(=O)(=O)N(C(=O)c2ccccc2)c2ccc(Oc3ccccc3Br)cc21`, at Nonstructural protein 5 [1], the IC50 was 11.4 µM. For `CCc1cccc(Oc2ccc3c(c2)C(OC(=O)c2ccccc2)=CS(=O)(=O)N3)c1`, the IC50 at Nonstructural protein 5 [1] came to 6.9 µM. As for `COc1cccc(Oc2ccc3c(c2)C(OC(=O)c2ccccc2)=CS(=O)(=O)N3)c1`, the IC50 at Nonstructural protein 5 [1] was 20.3 µM. As to `CC(C)(C)c1cccc(Oc2ccc3c(c2)C(OC(=O)c2ccccc2)=CS(=O)(=O)N3)c1`, on Nonstructural protein 5 [1], the half-maximal inhibitory concentration (IC50) amounted to 15.8 µM. Regarding `CN1c2ccc(Oc3cccc(Br)c3)cc2C(OC(=O)c2ccccc2)=CS1(=O)=O`, the IC50 at Nonstructural protein 5 [1] was 2.6 µM.

Regarding `O=C(OC1=CS(=O)(=O)Nc2ccc(Oc3cccc(Br)c3)cc21)c1ccccc1`, the IC50 on Nonstructural protein 5 [1] came out at 7 µM. The same measure, in the same setting: the value for `O=C(OC1=CS(=O)(=O)Nc2ccc(Oc3ccc(Br)cc3)cc21)c1ccccc1` was 4.7 µM; that for `CCOC1=CS(=O)(=O)Nc2ccc(Oc3ccccc3Br)cc21` was 41.5 µM. For `O=C(OC1=CS(=O)(=O)Nc2ccc(Oc3ccccc3Br)cc21)c1ccc(F)c(F)c1`, the inhibition constant (Ki) – broadly, the dissociation constant of the complex between target and ligand, obtained from inhibition or displacement – at Nonstructural protein 5 [2] amounted to 4.33 µM; at Nonstructural protein 5 [3] it was 1.58 µM; on Nonstructural protein 5 [5] it was 1.54 µM; at Nonstructural protein 5 [8] it was 0.252 µM. Further, the midpoint of cytotoxicity in series [4], the CC50, lay at 80 µM. In addition, the Kd (commonly the equilibrium constant for the complex coming apart) on Nonstructural protein 5 [6] came to 1.1 µM. In addition, in [7], the Activity entry is recorded as “Not Active”. The concentration for half-maximal inhibition (IC50) at Nonstructural protein 5 [1] came to 0.6 µM. With `O=C(OC1=CS(=O)(=O)Nc2ccc(Oc3ccccc3Br)cc21)c1ccccc1`, at Nonstructural protein 5 [1], the IC50 came out at 30.8 µM. The same measure, in the same setting: the result for `COC1=CS(=O)(=O)Nc2ccc(Oc3ccccc3Br)cc21` reads greater than 50 µM; that for `O=C1CCN(C(=O)c2ccccc2)c2ccc(Oc3ccccc3Br)cc21`, greater than 50 µM; that for `CN1c2c(C(=O)Nc3ccc(NS(C)(=O)=O)cc3)nn(-c3cccc(F)c3)c2-c2ccccc2S1(=O)=O`, 17.3 µM. Same read-out and setting: the result for `O=C(OC1=CS(=O)(=O)Nc2ccc(Oc3cccc(Br)c3)cc21)c1cccc([N+](=O)[O-])c1` reads 8.4 µM; that for `O=C(OC1=CS(=O)(=O)Nc2ccc(Oc3cccc(F)c3)cc21)c1ccccc1`, 7 µM.

As to `COc1cc(C)c(C(=O)NS(=O)(=O)c2cccc3cccnc23)cc1-c1ccc(C#CCO)s1`, the IC50 at Nonstructural protein 5 [9] amounted to 0.016 µM. On to `COc1ccc(C(=O)OC2=CS(=O)(=O)Nc3ccc(Oc4cccc(Br)c4)cc32)cc1[N+](=O)[O-]`, for which, on Nonstructural protein 5 [1], the IC50 was 4.7 µM.

Regarding `Cc1ccc(-n2nc(C(=O)Nc3ccc(NS(C)(=O)=O)cc3)c3c2-c2ccccc2S(=O)(=O)N3C)cc1`, the IC50 at Nonstructural protein 5 [1] was determined as 14.1 µM. The same measure, in the same setting: the value for `CN1c2c(C(=O)Nc3ccc(NS(C)(=O)=O)cc3)nn(-c3ccc(Cl)cc3)c2-c2ccccc2S1(=O)=O` was 13.6 µM.

The record behind these values is ChEMBL document CHEMBL4251565, “Functionalized 2,1-benzothiazine 2,2-dioxides as new inhibitors of Dengue NS5 RNA-dependent RNA polymerase” (Eur J Med Chem, 2018).
